Experimental data: patent publication US20170071235A1 (priority 2014, published 2017)

Experiments:
[1] = thiol group; cited from earlier work
[2] = tested on: TNF-α secretion produced by PMA-differentiated macrophages; format: cell-based, human
[3] = tested on: IL-1β secretion produced by PMA-differentiated macrophages; format: cell-based, human

SMILES	pKa [1]	effect on proliferation of THP-1 monocytes (THP-1 monocytes)	TNF-α secretion [2]	IL-1β response [3]	release of IL-1β [3]
OCCS [mercaptoethanol, 2-mercaptoethanol]	~9.6	–	–	–	–
CC1=C[C@H]2O[C@@H]3[C@H](O)C[C@](C)([C@@]2(CO)[C@H](O)C1=O)[C@]31CO1 [DON, deoxynivalenol]	–	decreased the proliferation	increase in TNF-α	did not show an IL-1β response	increased the release of IL-1β
C=C1[C@@H]2O[C@@H]3C=C(C)C(=O)[C@@H](O)[C@]3(CO)[C@@]1(C)C[C@H]2O [deepoxy-DON]	–	did not	–	–	did not
